Laboratory results as given in US20030083469A1, “Allosteric control of nuclear hormone receptors” (The Salk Institute for Biological Studies, priority 1995, published 2003).

Legend:
RXR-T3R heterodimer = molecular target: T1, RXR-T3R heterodimer (Homo sapiens, UniProt P19793); test: Ligand binding assay with RXR-T3R heterodimer; set-up: species or system human GST-hRXRα, chicken T3Rα1
T1 construct: made in house
T1 sequence (P19793 1-462): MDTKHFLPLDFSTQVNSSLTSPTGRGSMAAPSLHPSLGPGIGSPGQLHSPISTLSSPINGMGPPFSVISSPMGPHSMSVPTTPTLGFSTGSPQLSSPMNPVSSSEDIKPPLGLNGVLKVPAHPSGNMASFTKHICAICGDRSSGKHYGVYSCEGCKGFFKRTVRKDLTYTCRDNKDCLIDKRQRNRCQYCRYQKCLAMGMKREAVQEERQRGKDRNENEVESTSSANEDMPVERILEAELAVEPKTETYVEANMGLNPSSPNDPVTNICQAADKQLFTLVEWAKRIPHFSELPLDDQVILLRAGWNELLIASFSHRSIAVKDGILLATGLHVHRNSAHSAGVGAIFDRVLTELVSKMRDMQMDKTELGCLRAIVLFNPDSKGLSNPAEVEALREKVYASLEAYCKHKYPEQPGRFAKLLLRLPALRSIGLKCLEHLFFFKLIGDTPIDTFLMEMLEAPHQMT
T1 sequence (P04625 1-408 partner): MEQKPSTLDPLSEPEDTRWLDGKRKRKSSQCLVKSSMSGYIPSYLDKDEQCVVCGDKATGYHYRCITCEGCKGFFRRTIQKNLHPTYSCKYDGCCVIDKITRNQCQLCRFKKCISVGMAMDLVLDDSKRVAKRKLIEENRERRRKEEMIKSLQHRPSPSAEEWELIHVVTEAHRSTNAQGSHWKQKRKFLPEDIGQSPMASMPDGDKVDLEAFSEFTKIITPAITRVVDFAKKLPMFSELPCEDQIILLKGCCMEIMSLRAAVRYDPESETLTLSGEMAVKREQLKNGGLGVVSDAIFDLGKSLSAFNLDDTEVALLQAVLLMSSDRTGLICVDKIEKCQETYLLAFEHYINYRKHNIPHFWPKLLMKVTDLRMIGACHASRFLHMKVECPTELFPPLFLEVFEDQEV

T3R-RXR heterodimers = molecular target: T2, T3R-RXR heterodimers (Homo sapiens, UniProt P10828+P19793); test: Transient transfection analysis of T3R-RXR heterodimers (TK-LUC reporter, CV-1 cells); assay type: cell-based
T2 construct: transient transfection analysis of full-length Nurrl and/or RXR; expressed in transfected cells; host or cells: CV-1
T2 sequence (P10828 1-461): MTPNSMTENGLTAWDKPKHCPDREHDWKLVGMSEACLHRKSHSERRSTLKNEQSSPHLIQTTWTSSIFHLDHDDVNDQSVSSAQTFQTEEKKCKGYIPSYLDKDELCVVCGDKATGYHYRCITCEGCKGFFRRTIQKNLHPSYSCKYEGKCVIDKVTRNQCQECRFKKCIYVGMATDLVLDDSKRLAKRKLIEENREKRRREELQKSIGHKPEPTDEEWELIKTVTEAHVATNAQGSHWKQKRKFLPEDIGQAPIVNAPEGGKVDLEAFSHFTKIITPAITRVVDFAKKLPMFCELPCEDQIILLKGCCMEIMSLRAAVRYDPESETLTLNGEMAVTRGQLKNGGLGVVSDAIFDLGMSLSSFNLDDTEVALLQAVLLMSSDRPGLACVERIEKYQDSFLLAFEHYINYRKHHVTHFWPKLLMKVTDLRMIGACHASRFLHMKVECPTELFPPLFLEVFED
T2 sequence (P19793 1-462): T1 sequence (P19793 1-462)
Method: One day prior to transfection, cells were plated to 50-80% confluence using phenol-red free DMEM-FBS. Cells were transfected by lipofection using N-{2-(2,3)-dioleoyloxy)propyl-N,N,N-trimethyl ammonium methyl sulfate} according to the manufacturer's instructions (DOTAP, Boehringer Mannheim).
Since T3R and RAR function as heterodimers with RXR, RXR responsiveness was examined in the context of RXR-T3R and RXR-RAR heterodimers. Attention is directed to FIG. 2, wherein transient transfection analysis of T^3R-RXR and RAR-RXR heterodimers is described. Reporter constructs employed contain the HRE indicated in the figure, cloned upstream of the TK-LUC reporter. In the left panel of the figure, CV-1 cells were transfected with the following plasmids: HRE×2 - TK-LUC (300 ng/10^5 cells), CMX-hT3Rβ (20 ng/10^5 cells), CMX-hRXRα (20 ng/10^5 cells) and the internal control CMX-βgal (500 ng/10^5 cells) .

GAL-RAR + RXR LBD = molecular target: T3, GAL-RAR + RXR LBD (Homo sapiens, UniProt P19793); test: Transient transfection of GAL-RAR chimera with RXR LBD; assay type: cell-based; conditions: 100 nM LG69
T3 construct: or the human RXRα LBD (Glu 203 -Thr 462); expressed in transfected cells; host or cells: CV-1
T3 sequence (P19793 203-462): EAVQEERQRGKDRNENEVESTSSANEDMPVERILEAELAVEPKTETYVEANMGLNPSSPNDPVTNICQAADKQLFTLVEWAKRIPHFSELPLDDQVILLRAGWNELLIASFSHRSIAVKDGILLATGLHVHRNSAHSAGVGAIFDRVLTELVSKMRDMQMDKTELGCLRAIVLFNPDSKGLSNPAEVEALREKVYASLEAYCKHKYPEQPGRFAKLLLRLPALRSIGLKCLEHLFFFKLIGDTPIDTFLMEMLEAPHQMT
Method: CV-1 cells were grown in Dulbecco's Modified Eagle's medium supplemented with 10% resin-charcoal stripped (Samuels et al., Endocrinology 105:80-85 (1979)) fetal bovine serum, 50 U/ml penicillin G and 50 μg/ml streptomycin sulfate (DMEM-FBS) at 37° C. in 5% CO2. One day prior to transfection, cells were plated to 50-80% confluence using phenol-red free DMEM-FBS. Cells were transfected by lipofection using N-{2-(2,3)-dioleoyloxy)propyl-N,N,N-trimethyl ammonium methyl sulfate} according to the manufacturer's instructions (DOTAP, Boehringer Mannheim). […] Cells were harvested and assayed for luciferase and β-galactosidase activity. All points were performed in triplicate in each experiment and varied by less than 10%. Each experiment was repeated three or more times with similar results.
Since RXR serves as a silent partner in the T3R and RAR pathways, it was next investigated whether RXR could serve as an active component in other complexes. To search for such complexes, the LBD of a number of nuclear receptors were fused to the GAL4 DBD, and tested to determine whether the RXR LBD could confer LG69 responsiveness upon these GAL-LBD chimeras. […] Normalized luciferase activity was determined and plotted as fold-activation relative to untreated cells.

## CC=C(c1ccc(C(=O)O)cc1)c1cc2c(cc1C)C(C)(C)CCC2(C)C [LG69, 4-{1-(3,5,5,8,8-pentamethyl-5,6,7,8-tetrahydro-2-napthalenyl)-1-propenyl}benzoic acid]
RXR-T3R heterodimer; T3R with 1 μM T3 added
  change in [3H] LG69 binding: strongly diminished
RXR-T3R heterodimer; unliganded T3R
  change in [3H] LG69 binding: modest reduction
T3R-RXR heterodimers; 100 nM T3+100 nM LG69 versus T3 alone
  effect of LG69 added to T3 on the response to T3: somewhat reduced
T3R-RXR heterodimers; CV-1 cells transfected with T3Rβ and RXRα, 100 nM T3 or 100 nM LG69
  responsiveness of transfected cells to ligand (luciferase fold-activation): not responsive
GAL-RAR + RXR LBD
  LG69 responsiveness: not seen
